Reference: the NIST ThermoML archive (doi:10.1016/j.jct.2013.02.023)
Values joined by “and” are separate entries in the source; they are usually repeats but may differ in a detail not shown here. Equal entries are not always repeated. ± gives the expanded uncertainty stated by the source.

Experiment: molar heat capacity at constant pressure
Conditions: 101.33 kPa, relaxation calorimetry - Quantum Design PPMS

## O=P([O-])([O-])OP(=O)([O-])[O-].O=P([O-])([O-])OP(=O)([O-])[O-].O=P([O-])([O-])OP(=O)([O-])[O-].[Fe+3].[Fe+3].[Fe+3].[Fe+3] [iron(III) diphosphate]
1 K, Crystal 3
  molar heat capacity at constant pressure: 0.08105 ± 0.0086 J/K/mol
1.909 K, Crystal 3
  molar heat capacity at constant pressure: 0.1843 ± 0.019 J/K/mol
2 K, Crystal 3
  molar heat capacity at constant pressure: 0.2057 ± 0.021 J/K/mol
2.045 K, Crystal 3
  molar heat capacity at constant pressure: 0.2088 ± 0.021 J/K/mol
2.21 K, Crystal 3
  molar heat capacity at constant pressure: 0.2418 ± 0.025 J/K/mol
2.506 K, Crystal 3
  molar heat capacity at constant pressure: 0.3014 ± 0.03 J/K/mol
2.763 K, Crystal 3
  molar heat capacity at constant pressure: 0.3632 ± 0.037 J/K/mol
3 K, Crystal 3
  molar heat capacity at constant pressure: 0.4233 ± 0.044 J/K/mol
3.058 K, Crystal 3
  molar heat capacity at constant pressure: 0.4449 ± 0.045 J/K/mol
3.392 K, Crystal 3
  molar heat capacity at constant pressure: 0.553 ± 0.056 J/K/mol
3.803 K, Crystal 3
  molar heat capacity at constant pressure: 0.7103 ± 0.072 J/K/mol
4 K, Crystal 3
  molar heat capacity at constant pressure: 0.8002 ± 0.082 J/K/mol
4.207 K, Crystal 3
  molar heat capacity at constant pressure: 0.9081 ± 0.091 J/K/mol
4.685 K, Crystal 3
  molar heat capacity at constant pressure: 1.188 ± 0.12 J/K/mol
5 K, Crystal 3
  molar heat capacity at constant pressure: 1.41 ± 0.14 J/K/mol
5.203 K, Crystal 3
  molar heat capacity at constant pressure: 1.56 ± 0.16 J/K/mol
5.797 K, Crystal 3
  molar heat capacity at constant pressure: 2.097 ± 0.21 J/K/mol
6 K, Crystal 3
  molar heat capacity at constant pressure: 2.314 ± 0.24 J/K/mol
6.489 K, Crystal 3
  molar heat capacity at constant pressure: 2.871 ± 0.29 J/K/mol
7 K, Crystal 3
  molar heat capacity at constant pressure: 3.559 ± 0.36 J/K/mol
7.172 K, Crystal 3
  molar heat capacity at constant pressure: 3.81 ± 0.38 J/K/mol
7.975 K, Crystal 3
  molar heat capacity at constant pressure: 5.084 ± 0.51 J/K/mol
8 K, Crystal 3
  molar heat capacity at constant pressure: 5.127 ± 0.52 J/K/mol
8.875 K, Crystal 3
  molar heat capacity at constant pressure: 6.71 ± 0.67 J/K/mol
9 K, Crystal 3
  molar heat capacity at constant pressure: 6.952 ± 0.71 J/K/mol
10 K, Crystal 3
  molar heat capacity at constant pressure: 9.006 ± 0.22 J/K/mol
10.03 K, Crystal 3
  molar heat capacity at constant pressure: 9.074 ± 0.91 J/K/mol
11 K, Crystal 3
  molar heat capacity at constant pressure: 11.23 ± 0.27 J/K/mol
11.16 K, Crystal 3
  molar heat capacity at constant pressure: 11.61 ± 1.2 J/K/mol
12 K, Crystal 3
  molar heat capacity at constant pressure: 13.56 ± 0.33 J/K/mol
12.39 K, Crystal 3
  molar heat capacity at constant pressure: 14.49 ± 1.4 J/K/mol
13 K, Crystal 3
  molar heat capacity at constant pressure: 15.98 ± 0.39 J/K/mol
13.77 K, Crystal 3
  molar heat capacity at constant pressure: 17.87 ± 1.8 J/K/mol
14 K, Crystal 3
  molar heat capacity at constant pressure: 18.43 ± 0.45 J/K/mol
15 K, Crystal 3
  molar heat capacity at constant pressure: 20.84 ± 0.5 J/K/mol
15.31 K, Crystal 3
  molar heat capacity at constant pressure: 21.61 ± 2.2 J/K/mol
16 K, Crystal 3
  molar heat capacity at constant pressure: 23.37 ± 0.56 J/K/mol
17 K, Crystal 3
  molar heat capacity at constant pressure: 26.01 ± 2.6 J/K/mol and 26.02 ± 0.63 J/K/mol
18 K, Crystal 3
  molar heat capacity at constant pressure: 28.75 ± 0.69 J/K/mol
18.85 K, Crystal 3
  molar heat capacity at constant pressure: 31.22 ± 3.1 J/K/mol
19 K, Crystal 3
  molar heat capacity at constant pressure: 31.74 ± 3.2 J/K/mol and 31.7 ± 0.76 J/K/mol
19.52 K, Crystal 3
  molar heat capacity at constant pressure: 33.09 ± 3.3 J/K/mol
20 K, Crystal 3
  molar heat capacity at constant pressure: 34.42 ± 0.83 J/K/mol
20.61 K, Crystal 3
  molar heat capacity at constant pressure: 36.2 ± 3.6 J/K/mol
20.9 K, Crystal 3
  molar heat capacity at constant pressure: 37.11 ± 3.7 J/K/mol
21.09 K, Crystal 3
  molar heat capacity at constant pressure: 37.43 ± 3.7 J/K/mol
21.6 K, Crystal 3
  molar heat capacity at constant pressure: 38.93 ± 3.9 J/K/mol
21.81 K, Crystal 3
  molar heat capacity at constant pressure: 39.43 ± 3.9 J/K/mol
22.11 K, Crystal 3
  molar heat capacity at constant pressure: 40.45 ± 0.81 J/K/mol
22.85 K, Crystal 3
  molar heat capacity at constant pressure: 42.81 ± 0.86 J/K/mol
23.25 K, Crystal 3
  molar heat capacity at constant pressure: 44.02 ± 0.88 J/K/mol
23.87 K, Crystal 3
  molar heat capacity at constant pressure: 46 ± 0.92 J/K/mol
23.89 K, Crystal 3
  molar heat capacity at constant pressure: 46.12 ± 0.93 J/K/mol
24.08 K, Crystal 3
  molar heat capacity at constant pressure: 46.85 ± 0.94 J/K/mol
24.28 K, Crystal 3
  molar heat capacity at constant pressure: 47.45 ± 0.95 J/K/mol
24.47 K, Crystal 3
  molar heat capacity at constant pressure: 48.12 ± 0.96 J/K/mol
24.67 K, Crystal 3
  molar heat capacity at constant pressure: 48.81 ± 0.98 J/K/mol
24.88 K, Crystal 3
  molar heat capacity at constant pressure: 49.5 ± 0.99 J/K/mol
25 K, Crystal 3
  molar heat capacity at constant pressure: 49.88 ± 1.2 J/K/mol
25.08 K, Crystal 3
  molar heat capacity at constant pressure: 50.12 ± 1 J/K/mol
25.28 K, Crystal 3
  molar heat capacity at constant pressure: 50.75 ± 1 J/K/mol
25.47 K, Crystal 3
  molar heat capacity at constant pressure: 51.26 ± 1 J/K/mol
25.67 K, Crystal 3
  molar heat capacity at constant pressure: 51.84 ± 1 J/K/mol
25.81 K, Crystal 3
  molar heat capacity at constant pressure: 52.19 ± 1 J/K/mol
25.87 K, Crystal 3
  molar heat capacity at constant pressure: 52.46 ± 1.1 J/K/mol
26.07 K, Crystal 3
  molar heat capacity at constant pressure: 53.07 ± 1.1 J/K/mol
26.27 K, Crystal 3
  molar heat capacity at constant pressure: 53.83 ± 1.1 J/K/mol
26.48 K, Crystal 3
  molar heat capacity at constant pressure: 54.56 ± 1.1 J/K/mol
26.69 K, Crystal 3
  molar heat capacity at constant pressure: 55.35 ± 1.1 J/K/mol
26.9 K, Crystal 3
  molar heat capacity at constant pressure: 56.09 ± 1.1 J/K/mol
27.11 K, Crystal 3
  molar heat capacity at constant pressure: 56.75 ± 1.1 J/K/mol
27.3 K, Crystal 2
  molar heat capacity at constant pressure: 57.27 ± 1.4 J/K/mol
27.3 K, Crystal 3
  molar heat capacity at constant pressure: 57.27 ± 1.4 J/K/mol
27.32 K, Crystal 2
  molar heat capacity at constant pressure: 57.27 ± 1.1 J/K/mol
27.52 K, Crystal 2
  molar heat capacity at constant pressure: 56.92 ± 1.1 J/K/mol
27.7 K, Crystal 2
  molar heat capacity at constant pressure: 56.9 ± 1.1 J/K/mol
27.91 K, Crystal 2
  molar heat capacity at constant pressure: 56.91 ± 1.1 J/K/mol
28.04 K, Crystal 2
  molar heat capacity at constant pressure: 57.08 ± 1.1 J/K/mol
28.11 K, Crystal 2
  molar heat capacity at constant pressure: 57.21 ± 1.1 J/K/mol
28.31 K, Crystal 2
  molar heat capacity at constant pressure: 57.58 ± 1.2 J/K/mol
28.53 K, Crystal 2
  molar heat capacity at constant pressure: 58.14 ± 1.2 J/K/mol
28.63 K, Crystal 2
  molar heat capacity at constant pressure: 58.29 ± 1.2 J/K/mol
28.71 K, Crystal 2
  molar heat capacity at constant pressure: 58.58 ± 1.2 J/K/mol
28.91 K, Crystal 2
  molar heat capacity at constant pressure: 59.09 ± 1.2 J/K/mol
28.99 K, Crystal 2
  molar heat capacity at constant pressure: 59.36 ± 1.2 J/K/mol
29.12 K, Crystal 2
  molar heat capacity at constant pressure: 59.63 ± 1.2 J/K/mol
29.32 K, Crystal 2
  molar heat capacity at constant pressure: 60.15 ± 1.2 J/K/mol
29.52 K, Crystal 2
  molar heat capacity at constant pressure: 60.68 ± 1.2 J/K/mol
30 K, Crystal 2
  molar heat capacity at constant pressure: 62 ± 1.5 J/K/mol
30.01 K, Crystal 2
  molar heat capacity at constant pressure: 62.04 ± 1.2 J/K/mol
30.53 K, Crystal 2
  molar heat capacity at constant pressure: 63.41 ± 1.3 J/K/mol
31.05 K, Crystal 2
  molar heat capacity at constant pressure: 65.12 ± 1.3 J/K/mol
31.57 K, Crystal 2
  molar heat capacity at constant pressure: 66.61 ± 1.3 J/K/mol
31.8 K, Crystal 2
  molar heat capacity at constant pressure: 67.25 ± 1.3 J/K/mol
32.07 K, Crystal 2
  molar heat capacity at constant pressure: 68.15 ± 1.4 J/K/mol
32.58 K, Crystal 2
  molar heat capacity at constant pressure: 69.63 ± 1.4 J/K/mol
33.05 K, Crystal 2
  molar heat capacity at constant pressure: 71.25 ± 1.4 J/K/mol
33.6 K, Crystal 2
  molar heat capacity at constant pressure: 73.01 ± 1.5 J/K/mol
34.1 K, Crystal 2
  molar heat capacity at constant pressure: 74.7 ± 1.5 J/K/mol
34.61 K, Crystal 2
  molar heat capacity at constant pressure: 76.5 ± 1.5 J/K/mol
35 K, Crystal 2
  molar heat capacity at constant pressure: 77.84 ± 1.9 J/K/mol
35.09 K, Crystal 2
  molar heat capacity at constant pressure: 78.15 ± 1.6 J/K/mol
35.33 K, Crystal 2
  molar heat capacity at constant pressure: 78.91 ± 1.6 J/K/mol
35.63 K, Crystal 2
  molar heat capacity at constant pressure: 80.11 ± 1.6 J/K/mol
36.09 K, Crystal 2
  molar heat capacity at constant pressure: 81.71 ± 1.6 J/K/mol
36.62 K, Crystal 2
  molar heat capacity at constant pressure: 83.72 ± 1.7 J/K/mol
37.1 K, Crystal 2
  molar heat capacity at constant pressure: 85.44 ± 1.7 J/K/mol
37.66 K, Crystal 2
  molar heat capacity at constant pressure: 87.47 ± 1.8 J/K/mol
38.15 K, Crystal 2
  molar heat capacity at constant pressure: 89.5 ± 1.8 J/K/mol
38.62 K, Crystal 2
  molar heat capacity at constant pressure: 91.24 ± 1.8 J/K/mol
39.17 K, Crystal 2
  molar heat capacity at constant pressure: 93.41 ± 1.9 J/K/mol
39.24 K, Crystal 2
  molar heat capacity at constant pressure: 93.52 ± 1.9 J/K/mol
39.64 K, Crystal 2
  molar heat capacity at constant pressure: 95.31 ± 1.9 J/K/mol
40 K, Crystal 2
  molar heat capacity at constant pressure: 96.72 ± 2.3 J/K/mol
40.17 K, Crystal 2
  molar heat capacity at constant pressure: 97.41 ± 1.9 J/K/mol
40.66 K, Crystal 2
  molar heat capacity at constant pressure: 99.59 ± 2 J/K/mol
41.19 K, Crystal 2
  molar heat capacity at constant pressure: 101.8 ± 2 J/K/mol
41.66 K, Crystal 2
  molar heat capacity at constant pressure: 103.8 ± 2.1 J/K/mol
42.22 K, Crystal 2
  molar heat capacity at constant pressure: 106.31 ± 2.1 J/K/mol
42.39 K, Crystal 2
  molar heat capacity at constant pressure: 107.06 ± 2.1 J/K/mol
42.6 K, Crystal 2
  molar heat capacity at constant pressure: 108.05 ± 2.2 J/K/mol
42.8 K, Crystal 2
  molar heat capacity at constant pressure: 108.92 ± 2.2 J/K/mol
43 K, Crystal 2
  molar heat capacity at constant pressure: 109.89 ± 2.2 J/K/mol
43.2 K, Crystal 2
  molar heat capacity at constant pressure: 110.79 ± 2.2 J/K/mol
43.41 K, Crystal 2
  molar heat capacity at constant pressure: 111.83 ± 2.2 J/K/mol
43.59 K, Crystal 2
  molar heat capacity at constant pressure: 112.41 ± 2.2 J/K/mol
43.6 K, Crystal 2
  molar heat capacity at constant pressure: 112.72 ± 2.3 J/K/mol
43.8 K, Crystal 2
  molar heat capacity at constant pressure: 113.72 ± 2.3 J/K/mol
44.01 K, Crystal 2
  molar heat capacity at constant pressure: 114.89 ± 2.3 J/K/mol
44.2 K, Crystal 2
  molar heat capacity at constant pressure: 115.83 ± 2.3 J/K/mol
44.41 K, Crystal 2
  molar heat capacity at constant pressure: 116.9 ± 2.3 J/K/mol
44.61 K, Crystal 2
  molar heat capacity at constant pressure: 118.08 ± 2.4 J/K/mol
44.81 K, Crystal 2
  molar heat capacity at constant pressure: 119.19 ± 2.4 J/K/mol
45 K, Crystal 2
  molar heat capacity at constant pressure: 120.36 ± 2.9 J/K/mol
45.02 K, Crystal 2
  molar heat capacity at constant pressure: 120.42 ± 2.4 J/K/mol
45.22 K, Crystal 2
  molar heat capacity at constant pressure: 121.8 ± 2.4 J/K/mol
